Source: patent US5086054A, “Novel arylcycloalkanepolyalkylamines” (SRI International, priority 1990, dated 1992)
“Also recorded” adds a separate entry of the source. Where a name gives a salt, the structure may show the parent alone. Read-outs that look alike come from different tables or passages of the source.

Key:
σ receptors = details: literature; cited from earlier work
SIGMA RECEPTOR = target: T1, SIGMA RECEPTOR (Cavia porcellus, UniProt Q60492); assay: Sigma receptor binding assay ([3H]-d-SKF-10,047 displacement, brain membranes); set-up: species or system guinea-pig (male Hartley); details: for IC50: read-out: SIGMA RECEPTOR IC50
T1 construct: Two milliter aliquots of the brain membrane preparation, containing 1.7 mg of protein; tissue Pel-Freeze (Rogers, Arkansas); host or cells: guinea-pig brains plus cerebella, membranes
Protocol: (§1) This example illustrates testing of compounds in receptor binding assays.
(§2) Frozen brains from male Hartley guinea-pigs were obtained from Pel-Freeze (Rogers, Arkansas).
(§3) The brains plus cerebella were homogenized in 10 volumes (v/w) of 0.1M, pH 7.4, ice-cold Tris-HCl buffer with a Brinkmann polytron at setting 4 for 20 seconds. The homogenates were centrifuged at 20,000×g for 20 minutes at 4° C. The pellets were suspended in 10 volumes of ice-cold water and, after sitting on ice for 10 minutes, were centrifuged 30 minutes at 20,000×g at 4° C. The resulting pellets were resuspended in the above Tris buffer in ratio 1:100 (w/v) for σ receptor assays or in 5 mM Tris-HCl having pH 7.4, for PCP receptor assays. The final suspension was homogenized with a dounce glass-glass tissue grinder Wheaton "200", at small clearance (B), with three strokes before use. Two milliter aliquots of the brain membrane preparation, containing 1.7 mg of protein, were incubated in quadruplicate for one hour at 23° C. with competing mixture of ligand and radioligand. For σ receptors, [^3 H]-d-SKF-10,047, 2 nM was used. For PCP receptors, [^3 H] TCP [^3 H]-1-[1-(2-thienyl)cyclohexyl]piperidine), 1 nM was used. The nonspecific bindings were defined by 0.1 mM d-SKF-10,047 and 0.1 mM phencyclidine respectively for σ and PCP receptors. After incubation, free ligand was separated from bound ligand by rapid filtration through Whatman GF/C filters. The filters had been soaked before use in isoamyl alcohol-saturated water to prevent nonspecific [^3 H]-d-SKF-10,047 binding to the filter. In the PCP receptor assay, the filter was soaked in 0.5% polyethylenimine to reduce the filter binding of [^3 H]-TCP. After filtration, the trapped tissue was washed three times with 4 ml aliquots of 0.1 M ice-cold Tris buffer at pH 7.4 for σ receptors and 5 mM, ice-cold Tris buffer pH 7.4 for PCP receptors. The filters were transferred to 5 ml of liquid scintillation fluid and the retained radioactivity was measured by liquid scintillation spectrometry.

PCP RECEPTOR = assay: PCP receptor binding assay ([3H]-TCP displacement, brain membranes); set-up: species or system guinea-pig (male Hartley)
Protocol: as §1, §2, §3
(§4) Programs in Biomed. 17:107 (1983)].

MUSCARINIC ACETYLCHOLINE = format: binding, guinea-pig
Source text: (§5) This example illustrates the testing of compounds of this invention in dopamine D2, 5-HT2, muscarinic acetylcholine, α1 -adrenoceptor and β-adrenoceptor receptor assays. The receptor assay methods are described in Eur. J. Pharmacol., 155:345 (1988) except that in the β-adrenoceptor assay, [^125 I]-pindolol was used instead of [^3 H] dihydroalprenolol.
(§6) In this study, guinea-pig brains were used for binding studies. Homogenization and centrifugation procedures for preparation of brain membranes for each receptor assay were the same as described in Example 4 for the σ and PCP receptors. However, brain regions, tissue contents, and buffers may differ depending on the assay. Conditions of binding assays for various receptors were as follows:
For muscarinic acetylcholine assay, […]) [^3 H]-quinuclidinyl benzylate ([^3 H]-QNB) was incubated in a 2 ml assay (50 mM Tris-HCl, pH 7.4) for 2 hours at 23° C. with membranes from 2 mg of whole brain minus cerebellum.
(§7) Filtration and washing conditions were the same as described above for the σ receptor assay. Nonspecific binding for each receptor was defined by the inclusion of 1 μM haloperidol for dopamine D2, 1 μM haloperidol for 5-HT2, 10 μM scopolamine for muscarinic acetylcholine, 10 μM prazosin for α1 -adrenoceptor, and 0.2 μM 1-propranolol for β-adrenoceptor. Retained radioactivity was measured by liquid scintillation spectrometry except for ^125 I-pindolol which was measured by the LKB gamma counter.
as §4

5-HT2 = 5-HT2 (Cavia porcellus, UniProt A0A286Y537); assay: 5-HT2 receptor binding; set-up: species or system guinea-pig
Source text: as §5, §6, §7, §4

α1 -ADRENOCEPTOR = assay: α1-adrenoceptor binding ([3H]-prazosin); set-up: species or system guinea-pig
Source text: as §5, §6
For α1 -adrenoceptor assay, [^3 H]-prazosin (0.4 nM) was incubated in a 1 ml assay (50 mM Tris-HCl, pH 7.4) for 1 hour at 23° C. with membranes from 1 mg of whole brain minus cerebellum.
as §7, §4

β-ADRENOCEPTOR = assay: β-adrenoceptor binding ([125I]-pindolol); set-up: species or system guinea-pig
Source text: as §5, §6
For β-adrenoceptor, [^125 I]-pindolol (0.05 nM) was incubated in a 1 ml assay (50 mM Tris-HCl, pH 7.4) for 1 hr at 23° C. with membranes from 1 mg of whole brain minus cerebellum.
as §7, §4

[1] = Table 2, aryl ring substituents
[2] = Table 2, aryl ring substituents, read-out: PCP RECEPTOR IC50
[3] = Table 3, cycloalkyl ring size, read-out: PCP RECEPTOR IC50

T1 sequence (Q60492 whole entry): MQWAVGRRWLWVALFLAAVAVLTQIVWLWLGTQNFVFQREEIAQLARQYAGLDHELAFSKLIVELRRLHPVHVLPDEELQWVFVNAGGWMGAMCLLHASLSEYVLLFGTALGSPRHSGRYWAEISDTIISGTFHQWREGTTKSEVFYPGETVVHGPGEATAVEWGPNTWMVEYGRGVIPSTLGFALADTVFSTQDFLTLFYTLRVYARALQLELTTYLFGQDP
5-HT2, sequence (A0A286Y537 1-470): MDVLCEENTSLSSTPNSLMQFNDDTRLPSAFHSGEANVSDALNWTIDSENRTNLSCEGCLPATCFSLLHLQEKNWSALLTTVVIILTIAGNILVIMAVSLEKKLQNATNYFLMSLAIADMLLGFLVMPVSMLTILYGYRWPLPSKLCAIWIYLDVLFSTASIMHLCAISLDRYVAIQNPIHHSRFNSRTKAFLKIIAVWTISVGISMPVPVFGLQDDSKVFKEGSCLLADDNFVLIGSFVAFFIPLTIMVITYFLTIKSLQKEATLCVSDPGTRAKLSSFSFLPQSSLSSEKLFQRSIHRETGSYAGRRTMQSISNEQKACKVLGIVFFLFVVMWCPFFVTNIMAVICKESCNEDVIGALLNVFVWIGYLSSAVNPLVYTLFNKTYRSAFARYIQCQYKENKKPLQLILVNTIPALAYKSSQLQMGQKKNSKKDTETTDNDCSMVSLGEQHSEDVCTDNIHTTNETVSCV

SMILES: CCCN1CCC[C@H](c2cccc(O)c2)C1 [(+)-3-PPP, (+)-3-(3-hydroxyphenyl)-N-(1-propyl)piperidine]
- affinity / binding at σ receptors (in words) (σ receptors): bind to σ receptors

SMILES: O=C(OCCN1CCOCC1)C1(c2ccccc2)CCCCC1 [Compound 12, 2-(4-Morpholino)ethyl 1-phenylcyclohexane-1-carboxylate hydrochloride]
- SIGMA RECEPTOR SLOPE (SIGMA RECEPTOR; Table 1, slope of dose response curve): 0.48 ± 0.05
- potency at σ receptors (in words) (SIGMA RECEPTOR; hydrochloride): σ receptor potency increased; also recorded: very potent in the σ assay; also recorded: very high
- σ potency compared with other known σ ligands (in words) (SIGMA RECEPTOR; vs haloperidol, DTG, (+)-3-PPP, hydrochloride): not as great as other known σ ligands, such as for example haloperidol; also recorded: comparable to other σ ligands such a DTG and (+)-3-PPP
- IC50 (PCP RECEPTOR; Table 1, mean ± error (n), read-out: PCP RECEPTOR IC50): > 100000 nM
- IC50 (PCP RECEPTOR; Table 4, IC50 and nM only stated in text, read-out: PCP): > 100000 nM
- potency at PCP receptors (in words) (PCP RECEPTOR; hydrochloride): inactive in the PCP assay; also recorded: very weak or inactive in the PCP assay; also recorded: negligible; also recorded: low potency at PCP receptors; also recorded: relative inactivity
- IC50 (PCP RECEPTOR; read-out: IC50 / potency for PCP receptors): < 100000 nM
- IC50 (MUSCARINIC ACETYLCHOLINE; Table 4, IC50 and nM only stated in text, read-out: MUSCARINIC ACETYLCHOLINE): 14000 nM
- IC50 (MUSCARINIC ACETYLCHOLINE; read-out: potency (IC50) at muscarinic acetylcholine receptor): 14000 nM
- more potent at σ receptors than at muscarinic acetylcholine receptors (MUSCARINIC ACETYLCHOLINE; selectivity σ vs muscarinic): at least 300 fold
- IC50 (5-HT2; Table 4, IC50 and nM only stated in text, read-out: 5-HT2): 18700 nM
- IC50 (5-HT2; read-out: potency for 5-HT2): 18700 nM
- more potent at σ receptors than at 5-HT2 receptors (5-HT2; selectivity σ vs 5-HT2): ≥ 400 fold
- IC50 (α1 -ADRENOCEPTOR; Table 4, IC50 and nM only stated in text, read-out: α1 -ADRENOCEPTOR): > 100000 nM
- IC50 (α1 -ADRENOCEPTOR; read-out: potency for α1-adrenoceptor): > 100000 nM
- IC50 (β-ADRENOCEPTOR; Table 4, IC50 and nM only stated in text, read-out: β-ADRENOCEPTOR): > 200000 nM
- IC50 (β-ADRENOCEPTOR; read-out: potency for β-adrenoceptor): > 200000 nM

SMILES: COc1ccc(C2(CN3CCCC3)CCCCC2)cc1 [Compound 34]
- potency at σ receptors (in words) (SIGMA RECEPTOR): somewhat potent
- selectivity for σ receptors (in words) (SIGMA RECEPTOR): very selective for σ receptors
- SIGMA RECEPTOR SLOPE (SIGMA RECEPTOR; Table 2): 0.80 ± 0.07
- IC50 (SIGMA RECEPTOR; [1]): 0.546 µM
- potency at PCP receptors (in words) (PCP RECEPTOR): inactive at PCP sites
- IC50 (PCP RECEPTOR; [2]): > 25000 nM

SMILES: COc1ccc(C2(CN3CCCC3)CCCCC2)cc1OC [Compound 35]
- potency at σ receptors (in words) (SIGMA RECEPTOR): poor to reasonable potency at σ sites
- selectivity for σ receptors (in words) (SIGMA RECEPTOR): high selectivity for σ receptors
- SIGMA RECEPTOR SLOPE (SIGMA RECEPTOR; Table 2): 0.66 ± 0.07
- IC50 (SIGMA RECEPTOR; [1]): 1.32 µM
- IC50 (PCP RECEPTOR; [2]): > 25000 nM

SMILES: Oc1cccc(C2(CN3CCOCC3)CCCCC2)c1 [Compound 36]
- IC50 (SIGMA RECEPTOR; [1]): > 25 µM
- IC50 (PCP RECEPTOR; [2]): > 25000 nM

SMILES: COc1cccc(C2(CN3CCOCC3)CCCCC2)c1 [Compound 37]
- IC50 (SIGMA RECEPTOR; [1]): > 25 µM
- IC50 (PCP RECEPTOR; [2]): > 25000 nM

SMILES: COc1ccc(C2(CN3CCOCC3)CCCCC2)cc1OC [Compound 38]
- potency at σ receptors (in words) (SIGMA RECEPTOR): essentially inactive in both σ and PCP binding assays
- IC50 (SIGMA RECEPTOR; [1]): > 25 µM
- potency at PCP receptors (in words) (PCP RECEPTOR): essentially inactive in both σ and PCP binding assays
- IC50 (PCP RECEPTOR; [2]): > 25000 nM

SMILES: CCN(CC)CC1(c2ccc([N+](=O)[O-])cc2)CCCCC1 [Compound 39]
- SIGMA RECEPTOR SLOPE (SIGMA RECEPTOR; Table 2): 0.44 ± 0.01
- IC50 (SIGMA RECEPTOR; [1]): 0.304 µM
- IC50 (PCP RECEPTOR; [2]): > 25000 nM

SMILES: CN(C)CC1(c2cccc(O)c2)CCCCC1 [Compound 40]
- SIGMA RECEPTOR SLOPE (SIGMA RECEPTOR; Table 2): 0.61 ± 0.01
- IC50 (SIGMA RECEPTOR; [1]): 10.1 µM
- IC50 (PCP RECEPTOR; [2]): > 25000 nM

SMILES: Cc1ccc(C2(CN(C)C)CCCCC2)cc1 [Compound 41]
- SIGMA RECEPTOR SLOPE (SIGMA RECEPTOR; Table 2): 0.62 ± 0.03
- IC50 (SIGMA RECEPTOR; [1]): 0.541 µM
- IC50 (PCP RECEPTOR; [2]): > 25000 nM

SMILES: COc1cccc(C2(CN(C)C)CCCCC2)c1 [Compound 42]
- SIGMA RECEPTOR SLOPE (SIGMA RECEPTOR; Table 2): 0.70 ± 0.06
- IC50 (SIGMA RECEPTOR; [1]): 2.85 µM
- IC50 (PCP RECEPTOR; [2]): > 25000 nM

SMILES: COc1ccc(C2(CN(C)C)CCCCC2)cc1OC [Compound 43]
- potency at σ receptors (in words) (SIGMA RECEPTOR): poor to reasonable potency at σ sites
- selectivity for σ receptors (in words) (SIGMA RECEPTOR): high selectivity for σ receptors
- SIGMA RECEPTOR SLOPE (SIGMA RECEPTOR; Table 2): 0.66 ± 0.13
- IC50 (SIGMA RECEPTOR; [1]): 9.05 µM
- IC50 (PCP RECEPTOR; [2]): > 25000 nM

SMILES: c1ccc(C2(CN3CCCCC3)CCCC2)cc1 [Compound 44]
- SIGMA RECEPTOR SLOPE (SIGMA RECEPTOR; Table 3): 1.03 ± 0.04
- IC50 (SIGMA RECEPTOR; Table 3, cycloalkyl ring size): 0.995 µM
- IC50 (PCP RECEPTOR; [3]): > 25000 nM

SMILES: c1ccc(C2(CN3CCCCC3)CC2)cc1 [Compound 45]
- SIGMA RECEPTOR SLOPE (SIGMA RECEPTOR; Table 3): 0.83 ± 0.19
- IC50 (SIGMA RECEPTOR; Table 3, cycloalkyl ring size): 5.59 µM
- IC50 (PCP RECEPTOR; [3]): 8840 nM

SMILES: O=C(OCCN1CCCC1)C1(c2ccccc2)CCCC1 [Compound 46]
- SIGMA RECEPTOR SLOPE (SIGMA RECEPTOR; Table 3): 0.68 ± 0.06
- IC50 (SIGMA RECEPTOR; Table 3, cycloalkyl ring size): 0.454 µM
- IC50 (PCP RECEPTOR; [3]): > 25000 nM

SMILES: O=C(OCCN1CCCC1)C1(c2ccccc2)CC1 [Compound 47, 2-(1-Pyrrolidino)ethyl 1-Phenylcyclopropane-1-carboxylate hydrochloride]
- SIGMA RECEPTOR SLOPE (SIGMA RECEPTOR; Table 3): 0.78 ± 0.09
- IC50 (SIGMA RECEPTOR; Table 3, cycloalkyl ring size): 1.46 µM
- IC50 (PCP RECEPTOR; [3]): > 25000 nM

SMILES: C=CCN1CCC2(C)c3cc(O)ccc3CC1C2C (stereo not shown) [N-allylnormetazocine]
- affinity / binding at σ receptors (in words) (σ receptors): bind to σ receptors

SMILES: CC1C2Cc3ccc(O)cc3C1(C)CCN2CC1CC1 (stereo not shown) [cyclazocine, 3-(cyclopropylmethyl)-1,2,3,4,5,6-hexahydro-6,11-dimethyl-2,6-methano-3-benzazocin-8-ol]
- affinity / binding at σ receptors (in words) (σ receptors): bind to σ receptors

SMILES: C=CCN1CC[C@@]23CCCC[C@@H]2[C@@H]1Cc1ccc(O)cc13 [dextrallorphan]
- affinity / binding at σ receptors (in words) (σ receptors): bind to σ receptors

SMILES: CC(C)=CCN1CCC2(C)c3cc(O)ccc3CC1C2C (stereo not shown) [pentazocine, 2-dimethylallyl-5,9-dimethyl-2-hydroxy-benzomorphan]
- affinity / binding at σ receptors (in words) (σ receptors): bind to σ receptors
